ChEMBL document CHEMBL1130439, “Constrained analogues of 2-nor cyclic nucleoside monophosphates” (1997)

Assays:
F2002 cell line [1] = assay: The compound was tested for inhibitory activity against human cytomegalovirus (HCMV) in flow 2002 cells; type: functional; settings: read-out: CD50 (the source's name)
F2002 cell line [2] = assay: The compound was tested for inhibitory activity against human cytomegalovirus (HCMV) (WFl strain) in plaque reduction assay in flow 2002 cells; type: functional
MT4 [3] = assay: Compound was tested against HIV-l (RF strain) in plaque reduction assay in MT-4 cells; no inhibition up to 100 ug/ml.; type: functional, cell-based; settings: Homo sapiens
Vero [4] = assay: Compound was tested against HSV-1 (KOS strain) in plaque reduction assay in Vero cells; no inhibition up to 100 ug/ml.; type: functional, cell-based; settings: Chlorocebus sabaeus
Vero [5] = assay: Compound was tested against HSV-2 (186 strain) in plaque reduction assay in Vero cells; no inhibition up to 100 ug/ml.; type: functional, cell-based; settings: Chlorocebus sabaeus
F2002 cell line [6] = assay: The compound was tested for inhibitory activity against human cytomegalovirus (HCMV) in flow 2002 cells; no inhibition up to 100 ug/ml.; type: functional, cell-based
MT4 [7] = assay: Compound was tested against HIV-l (RF strain) in plaque reduction assay in MT-4 cells; no inhibition up to 100 ug/ml..; type: functional, cell-based; settings: Homo sapiens

SMILES: Nc1nc(=O)n(C2CSC3(COP(=O)(O)OC3)O2)cc1Br (stereo not given)
- CC50 (F2002 cell line [1]): > 100 µg/mL
- PD50 (F2002 cell line [2]): 2.5 µg/mL
- Activity (MT4 [3]): No inhibition
- Activity (Vero [4]): No inhibition
- Activity (Vero [5]): No inhibition

SMILES: N.Nc1ccn(C2CSC3(COP(=O)(O)OC3)O2)c(=O)n1 (stereo not given)
- CC50 (F2002 cell line [1]): > 100 µg/mL
- PD50 (F2002 cell line [2]): 11 µg/mL
- Activity (MT4 [3]): No inhibition
- Activity (Vero [4]): No inhibition
- Activity (Vero [5]): No inhibition

SMILES: Nc1nc2c(ncn2COC(CO)CO)c(=O)[nH]1 [GANCICLOVIR]
- CC50 (F2002 cell line [1]): > 100 µg/mL
- PD50 (F2002 cell line [2]): 0.1 µg/mL

SMILES: O=c1ccn(C2CSC(CO)(CO)O2)c(=O)[nH]1 (stereo not given)
- Activity (F2002 cell line [6]): No inhibition

SMILES: CC(=O)Nc1nc(=O)n(C2CSC(CO)(CO)O2)cc1Br (stereo not given)
- Activity (F2002 cell line [6]): No inhibition

SMILES: Cc1cn(C2CSC3(COP(=O)(O)OC3)O2)c(=O)[nH]c1=O (stereo not given)
- CC50 (F2002 cell line [1]): > 100 µg/mL
- PD50 (F2002 cell line [2]): >100 µg/mL
- Activity (MT4 [3]): No inhibition
- Activity (Vero [4]): No inhibition
- Activity (Vero [5]): No inhibition

SMILES: N.Nc1nc2c(ncn2C2CSC3(COP(=O)(O)OC3)O2)c(=O)[nH]1 (stereo not given)
- CC50 (F2002 cell line [1]): > 100 µg/mL
- PD50 (F2002 cell line [2]): >100 µg/mL
- Activity (MT4 [3]): No inhibition
- Activity (Vero [4]): No inhibition
- Activity (Vero [5]): No inhibition

SMILES: O=c1ccn(C2CSC3(COP(=O)(O)OC3)O2)c(=O)[nH]1 (stereo not given)
- CC50 (F2002 cell line [1]): > 100 µg/mL
- PD50 (F2002 cell line [2]): 2.5 µg/mL
- Activity (MT4 [7]): No inhibition
- Activity (Vero [4]): No inhibition
- Activity (Vero [5]): No inhibition

SMILES: Nc1nc(=O)n(C2CSC3(COP(=O)(O)OC3)O2)cc1F (stereo not given)
- CC50 (F2002 cell line [1]): > 100 µg/mL
- PD50 (F2002 cell line [2]): >100 µg/mL
- Activity (MT4 [3]): No inhibition
- Activity (Vero [4]): No inhibition
- Activity (Vero [5]): No inhibition

SMILES: CC(=O)Nc1ccn(C2CSC(CO)(CO)O2)c(=O)n1 (stereo not given)
- Activity (F2002 cell line [6]): No inhibition
